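Briefly, cells in 96-well plates were exposed to five compound concentrations for 48 h, and endpoints were estimated by linear interpolation. Here, GI50 denotes the concentration required for 50% inhibition of growth. TGI is the concentration that stops growth completely.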

Holding throughout (assay): NCI anticancer screen, dose series, 48 h
For test [1], the system named is HCT-116 colon.
Test [2] has as its system MALME-3M melanoma.
For test [3], the system named is MDA-N.
In test [4] the test system is SF-268 CNS.
Test [5] relates to SK-MEL-5 melanoma.
Test [6] concerns SN12C renal.
Test [7] concerns UACC-257 melanoma.
Test [8] has as its system UO-31 renal.
In test [9] the test system is HCC-2998 colon.
Test [10] deals with SK-MEL-2 melanoma.

As for `O=c1[nH]c(=O)n(C2CC(O)C(CO)O2)cc1OCc1ccccc1` (stereo not given), the TGI in test [1], in test [2], in test [3], in [4], in test [5] and in test [6] was greater than 100 µM in each case. Also, the TGI in test [7] and in [8] was greater than 100 µM in each case.

Regarding `CCOC(=O)C1CCC(=O)N1C(=O)c1ccccc1` (stereo not given), the TGI in test [9], in [1], in test [2], in test [4], in [5] and in [6] was greater than 100 µM throughout. Moreover, the TGI in test [7] and in test [8] was greater than 100 µM in each case.

For the compound `CCOP(=O)(/C=C\n1ccc(N)nc1=O)OCC`, the TGI in [1], in test [3], in [4], in [10], in test [5] and in test [6] was greater than 100 µM throughout. In test [7], this compound gave a TGI greater than 100 µM.

For the compound `COc1ccc(NC(=S)NC(=O)c2ccc3c(c2)Sc2ccccc2O3)c([N+](=O)[O-])c1`, the TGI is greater than 100 µM in test [1]; 35.7 µM in [2]; greater than 100 µM in [3]; 45.7 µM in [4]; 96.2 µM in test [10]; greater than 100 µM in test [5]. The TGI in [6] is greater than 100 µM; in [7] it was greater than 100 µM; in [8], 57.4 µM.

As for `c1ccc(N2N=C(c3ccco3)CC2c2ccco2)cc1` (stereo not given), the TGI in [1], in test [2], in test [4], in test [10], in [5] and in test [6] was greater than 100 µM in each case. In test [8], this compound came in with a TGI greater than 100 µM.

As for `CN(C)CCC(=O)/C=C\c1ccccc1`, the TGI in test [1] stood at 28.7 µM; in test [2], 32.8 µM; in test [5] it was 31.8 µM; in [6] it was 30.7 µM; in test [7], 31.5 µM; in [8] it was 34 µM.

For `COc1cc(NC(C)=O)ccc1C(=O)NN1C(=O)/C(=C/c2ccco2)N=C1c1ccccc1`, the TGI in [1], in test [2], in [3], in test [4], in [10] and in test [5] was greater than 50 µM in each case. For the same compound, the TGI in test [6] and in test [8] was greater than 50 µM each time.

For `COc1nc(C#CC(C)(C)C)nc(OC)n1`, the TGI in [1] was greater than 100 µM; in test [2] it was 46.9 µM; in test [3], greater than 100 µM; in [4], 78.6 µM; in test [10], greater than 100 µM; in [5] it was 39 µM. The TGI in test [6] is 79 µM; in test [7] it was greater than 100 µM; in test [8], greater than 100 µM.

As to `NS(=O)(=O)c1cccc(NC(=S)NC(=O)Nc2ccc(Cl)c(Cl)c2)c1`, the TGI came out at 31.4 µM in test [1]; 29.4 µM in test [2]; 38.2 µM in test [3]; 56.4 µM in [4]; 40.2 µM in [10]; 30.8 µM in test [5]. Also, the TGI was 32.6 µM in [6], greater than 100 µM in test [7] and 37.8 µM in test [8].

As for `C=Cc1ccccc1C1(O)C=CC(OC)(OC)C=C1`, the TGI is 33.4 µM in test [9]; 11.7 µM in test [1]; 27.8 µM in test [2]; 33.9 µM in test [4]; 37.9 µM in test [10]; 26.9 µM in test [5]. In addition, the values for the TGI in test [6], in [7] and in [8] were 24.4 µM, 24.1 µM and 19.8 µM, respectively.

With `S=c1cc(-c2ccc3c(c2)OCO3)s[nH]1`, the TGI in test [1], in test [2], in test [3], in test [4], in test [10] and in test [5] was greater than 100 µM throughout. For the same compound, the TGI in [6], in test [7] and in test [8] was greater than 100 µM each time.

On to `CCCCCCCCCc1nn2c(Cc3ccccc3)nnc2s1`, for which the TGI in test [1] turned out to be 31.9 µM; in test [3], 38.7 µM; in test [4], 32.4 µM; in test [10], 39.3 µM; in test [5], 30.1 µM; in test [6], 32.8 µM. In addition, the TGI is 54.1 µM in test [7] and 25.8 µM in [8].

Turning to `c1c2c(cc(-n3nnc4c3CCCCCC4)c1-n1nnc3c1CCCCCC3)CCCCCC2`, the TGI in test [9] amounted to 29.5 µM; in test [1], 21.6 µM; in [4], 23.8 µM; in test [10] it was 34.6 µM; in [5], 24.7 µM; in [6], 24.4 µM. Besides, the TGI in test [7] was determined as 32.9 µM; in test [8], 18.9 µM.

As to `COc1ccc(-c2cc(-c3ccccc3)[nH]c(=S)c2C#N)cc1`, the TGI is greater than 100 µM in test [9]; greater than 100 µM in test [1]; greater than 100 µM in test [2]; greater than 100 µM in test [3]; greater than 100 µM in test [4]; 34.3 µM in test [5]. Besides, the TGI is greater than 100 µM in test [6] and 45.7 µM in test [8].

As for `N#Cc1nc(NC(=O)c2ccccc2C(=O)O)c(C#N)[nH]1`, the TGI in [1], in [2], in test [3], in [4], in test [10] and in test [5] was greater than 100 µM throughout. The TGI in [6], in [7] and in test [8] was greater than 100 µM each time.

Turning to `Cc1ccc(C2=CC(=O)/C(=C\C(=O)c3ccc(Cl)cc3)O2)cc1`, the TGI in [9] was determined as 51.1 µM; in [1], 27.8 µM; in test [2], 32.7 µM; in test [3], 16.2 µM; in test [4] it was 36.3 µM; in test [5], 33.2 µM. Further, the TGI in [7] was determined as 4.75 µM; in [8] it was 21.4 µM.

With `C=C1C(O)CC[C@]2(C)C1C1OC(C)(C)O[C@]13CC(=O)C(C)=C([C@H]1OC(C)(C)OC12)C3(C)C` (stereo not given in full), the TGI in [9], in [1], in test [2], in [4], in [5] and in test [6] was greater than 100 µM in each case. The TGI in test [7] and in test [8] was greater than 100 µM in each case.

For the compound `CC(=O)OC1C(COC(=O)c2ccccc2)OC(Nc2ncc(-c3ccc(Br)cc3)s2)C(OC(=O)c2ccccc2)C1OC(=O)c1ccccc1` (stereo not given), the TGI in test [1] is greater than 100 µM; in test [2], greater than 100 µM; in [3] it was greater than 100 µM; in [4] it was greater than 100 µM; in [10], 35.3 µM; in test [5], greater than 100 µM. Also, the TGI in test [6], in test [7] and in test [8] was greater than 100 µM in each case.

With `COC(=O)C1=Nc2c(C)nn(-c3ccccc3)c2N=C(c2ccccc2)C1`, the TGI in test [9], in test [1], in [2], in test [3], in test [4] and in [5] was greater than 10 µM each time. Moreover, the TGI in test [6] and in test [7] was greater than 10 µM each time.

Consider `COc1cc2c(c(O)c1OC)C(=O)C(Cc1ccc(O)cc1)CO2` (stereo not given), for which the TGI in test [1] was greater than 100 µM; in [2] it was greater than 100 µM; in test [4], greater than 100 µM; in [10] it was greater than 100 µM; in [5], 49 µM; in [6], greater than 100 µM. In addition, the TGI in test [7] and in [8] was greater than 100 µM in each case.

Turning to `C=C(C)C1C/C=C(/C)CCCC2(CCC3=C(CC(C(=C)C)C/C=C(/C)CCC3)O2)C(=O)C1` (stereo not given), the TGI in [9], in [1], in test [2], in [4], in test [10] and in test [6] was greater than 100 µM each time. The TGI in test [7] and in test [8] was greater than 100 µM throughout.

With `O=c1cc(N2CCCC2)[nH]c(=O)n1-c1ccccc1`, the TGI in test [9], in [1], in test [2], in [10], in [5] and in test [6] was greater than 100 µM throughout. Besides, in [7], the TGI was greater than 100 µM.

With `O=C(C(Cl)=C(N1CCOCC1)N1CCOCC1)C(Cl)Cl`, the TGI in test [9], in test [1], in [2], in [3], in [4] and in [5] was greater than 100 µM each time. Further, the TGI in [6], in test [7] and in test [8] was greater than 100 µM throughout.

In the case of `COc1ccc(CC2COc3cc(O)cc(O)c3C2=O)cc1O` (stereo not given), the TGI in test [2], in test [4], in test [10], in test [5], in [6] and in test [7] was greater than 100 µM throughout. In [8], this compound displayed a TGI greater than 100 µM.

In the case of `O=C(Nc1noc(-c2ccccc2)n1)c1ccccc1CNc1noc(-c2ccccc2)n1`, the TGI in test [9], in test [1], in [2], in [3], in test [4] and in test [5] was greater than 100 µM each time. Also, the TGI in test [6], in [7] and in [8] was greater than 100 µM each time.

As to `CCOC(=O)C(NC(=O)c1nc[nH]c1[N+](=O)[O-])C(C)C` (stereo not given), the TGI in test [9], in [1], in test [2], in test [4], in [10] and in [5] was greater than 100 µM each time. Moreover, the TGI in test [6], in [7] and in test [8] was greater than 100 µM in each case.

As to `OCc1ccc2c(c1)CC1(Cc3ccc(/C=N/O)cc3C1)C2` (stereo not given), the TGI in test [9] was 11.5 µM; in test [1], greater than 100 µM; in test [2] it was greater than 78.8 µM; in [4], greater than 100 µM; in test [10] it was 42.3 µM; in test [5] it was 8.25 µM. For the same compound, the results for the TGI in test [6], in [7] and in test [8] were greater than 54.5 µM, 18.7 µM and 80.9 µM, respectively.

Consider `COc1ccc(CN2C3CC2CN(c2ccc(-c4cc(OCC(C)(C)O)cn5ncc(C#N)c45)cn2)C3)cn1`, for which the GI50 in test [9] is 93.7 µM; in test [1], 8.06 µM; in test [2] it was greater than 100 µM; in test [4], 4.6 µM; in [10], greater than 100 µM; in [5], greater than 100 µM. Besides, the GI50 is 2.95 µM in [6], greater than 100 µM in test [7] and 7.32 µM in [8]. Moreover, the TGI in test [9], in test [1], in test [2], in test [4], in [10] and in test [5] was greater than 100 µM throughout. Besides, the TGI in [6], in [7] and in [8] was greater than 100 µM throughout.

`N#Cc1c(-c2ccccc2)cc(-c2ccc(Cl)cc2)[nH]c1=S`: the TGI is greater than 100 µM in [9]; greater than 100 µM in test [1]; greater than 100 µM in test [2]; greater than 100 µM in [3]; greater than 100 µM in test [4]; 39 µM in test [5]. The TGI in test [6] and in test [8] was greater than 100 µM throughout.

Turning to `CC12CCCC3(CC(=O)C(C)(C)C3C(=O)C1)C2` (stereo not given), the TGI in test [1], in [2], in test [3], in test [4], in [10] and in [5] was greater than 100 µM throughout. Also, the TGI in test [6], in test [7] and in [8] was greater than 100 µM each time.

As to `CCOC(=O)c1nc2cc(C(F)(F)F)ccc2nc1Nc1ccc(C(=O)NC(C(=O)OCC)C(=O)OCC)cc1`, the TGI is greater than 100 µM in test [9]; 37.4 µM in test [1]; 40.3 µM in test [2]; 53.6 µM in test [4]; greater than 100 µM in test [10]; 54.2 µM in [5]. For the same compound, the TGI was 47.2 µM in [6], 51.9 µM in [7] and 91.9 µM in [8].

The values are drawn from PubChem BioAssay (NCI).
